According to patent US20100298141A1, “SUBSTITUTED PYRIDINE N-OXIDE HERBICIDES” (E. I. DU PONT DE NEMOURS AND COMPANY, priority 2007, published 2010):

What was measured:
Experiment in all cases: Test F preemergence test
[1] = system: annual bluegrass; assay type: in vivo, Poa annua; conditions: scale 0 to 100
Description: (§1) Seeds of plant species selected from bermudagrass (Cynodon dactylon), Surinam grass (Brachiaria decumbens), large crabgrass (Digitaria sanguinalis), green foxtail (Setaria viridis), goosegrass (Eleusine indica), johnsongrass (Sorghum halepense), kochia (Kochia scoparia), pitted morningglory (Ipomoea lacunosa), purple nutsedge (Cyperus rotundus), common ragweed (Ambrosia elation), mustard (Brassica nigra), guineagrass (Panicum maximum), […] (Paspalum dilatatum), barnyardgrass (Echinochloa crus-galli), southern sandbur (Cenchrus echinatus), common sowthistle (Sonchus oleraceous), prickly […] spinosa), Italian ryegrass (Lolium multiflorum), common purslane (Portulaca oleracea), broadleaf signalgrass (Brachiaria platyphylla), common groundsel (Senecio vulgaris), common chickweed (Stellaria media), Virginia dayflower (Commelina virginica), annual bluegrass (Poa annua), naked crabgrass (Digitaria nuda), […] cochinchinensis), quackgrass (Elytrigia repens), Canada horseweed (Conyza canadensis), field bindweed (Convolvulus arvensis), […] (Bidens bipinnata), common mallow (Malva sylvestris), Russian thistle (Salsola kali), and sugarcane (Saccharum officinarum) were planted and treated preemergence with test chemicals formulated in a non-phytotoxic solvent mixture which included a surfactant. At a different time, sugarcane was treated with postemergence applications of some of the test chemicals formulated in the same manner. Plants were approximately 3- to 4-leaf stage for the postemergence treatments. Treated plants and controls were maintained in a greenhouse for 14 to 21 days, after which time all species were compared to controls and visually evaluated. […] A dash (-) response means no test result.

[2] = system: common mallow; assay type: in vivo, Malva sylvestris; conditions: scale 0 to 100
Description: as §1

[3] = system: prickly sida; assay type: in vivo, Sida spinosa; conditions: scale 0 to 100
Description: as §1

[4] = system: naked crabgrass; assay type: in vivo, Digitaria nuda; conditions: scale 0 to 100
Description: as §1

[5] = system: bermudagrass; assay type: in vivo, Cynodon dactylon; conditions: scale 0 to 100
Description: as §1

[6] = system: dallisgrass; assay type: in vivo, Paspalum dilatatum; conditions: scale 0 to 100
Description: as §1

[7] = system: mustard; assay type: in vivo, Brassica nigra; conditions: scale 0 to 100
Description: as §1

[8] = system: Virginia dayflower; assay type: in vivo, Commelina virginica; conditions: scale 0 to 100
Description: as §1

[9] = system: barnyardgrass; assay type: in vivo, Echinochloa crus-galli; conditions: scale 0 to 100
Description: as §1

[10] = system: broadleaf signalgrass; assay type: in vivo, Brachiaria platyphylla; conditions: scale 0 to 100; for Plant response rating, Signalgrass: 31 g ai/ha
Description: as §1

[11] = system: kochia; assay type: in vivo, Kochia scoparia; conditions: scale 0 to 100
Description: as §1

[12] = system: purple nutsedge; assay type: in vivo, Cyperus rotundus; conditions: scale 0 to 100
Description: as §1

[13] = system: guineagrass; assay type: in vivo, Panicum maximum; conditions: scale 0 to 100
Description: as §1

[14] = system: pitted morningglory; assay type: in vivo, Ipomoea lacunosa; conditions: scale 0 to 100
Description: as §1

[15] = system: quackgrass; assay type: in vivo, Elytrigia repens; conditions: scale 0 to 100
Description: as §1

[16] = system: common purslane; assay type: in vivo, Portulaca oleracea; conditions: scale 0 to 100
Description: as §1

[17] = system: common groundsel; assay type: in vivo, Senecio vulgaris; conditions: scale 0 to 100
Description: as §1

Cn1nc(C(F)(F)F)c(CS(=O)(=O)c2cccc[n+]2[O-])c1OCC(F)(F)F [Compound 29]
Bluegrass plant response rating ([1]; 62 g ai/ha, Preemergence): 98
Bluegrass plant response rating ([1]; 125 g ai/ha, preemergence): 100
Plant response rating, Bluegrass ([1]; Preemergence, 16 g ai/ha): 20
Plant response rating, Bluegrass ([1]; Preemergence, 31 g ai/ha): 75
Mallow plant response rating ([2]; 62 g ai/ha, Preemergence): 100
Mallow plant response rating ([2]; 125 g ai/ha, preemergence): 100
Plant response rating, Mallow ([2]; Preemergence, 16 g ai/ha): 0
Plant response rating, Mallow ([2]; Preemergence, 31 g ai/ha): 0
Prickly Sida plant response rating ([3]; 62 g ai/ha, Preemergence): 95
Prickly Sida plant response rating ([3]; 125 g ai/ha, preemergence): 100
Plant response rating, Prickly Sida ([3]; Preemergence, 16 g ai/ha): 40
Plant response rating, Prickly Sida ([3]; Preemergence, 31 g ai/ha): 95
Crabgrass, Naked plant response rating ([4]; 62 g ai/ha, Preemergence): 100
Crabgrass, Naked plant response rating ([4]; 125 g ai/ha, preemergence): 100
Plant response rating, Crabgrass, Naked ([4]; Preemergence, 31 g ai/ha): 80
Bermudagrass plant response rating ([5]; 125 g ai/ha, preemergence): 100
Plant response rating, Bermudagrass ([5]; Preemergence, 16 g ai/ha): 40
Plant response rating, Bermudagrass ([5]; Preemergence, 31 g ai/ha): 90
Dallisgrass plant response rating ([6]; 62 g ai/ha, Preemergence): 100
Dallisgrass plant response rating ([6]; 125 g ai/ha, preemergence): 100
Plant response rating, Dallisgrass ([6]; Preemergence, 16 g ai/ha): 0
Plant response rating, Dallisgrass ([6]; Preemergence, 31 g ai/ha): 100
Black Mustard plant response rating ([7]; 62 g ai/ha, Preemergence): 100
Black Mustard plant response rating ([7]; 125 g ai/ha, preemergence): 100
Plant response rating, Black Mustard ([7]; Preemergence, 16 g ai/ha): 40
Plant response rating, Black Mustard ([7]; Preemergence, 31 g ai/ha): 100
Dayflower plant response rating ([8]; 62 g ai/ha, Preemergence): 100
Dayflower plant response rating ([8]; 125 g ai/ha, preemergence): 100
Plant response rating, Dayflower ([8]; Preemergence, 16 g ai/ha): 0
Plant response rating, Dayflower ([8]; Preemergence, 31 g ai/ha): 95
Barnyardgrass plant response rating ([9]; 62 g ai/ha, Preemergence): 100
Barnyardgrass plant response rating ([9]; 125 g ai/ha, preemergence): 100
Plant response rating, Barnyardgrass ([9]; Preemergence, 16 g ai/ha): 50
Plant response rating, Barnyardgrass ([9]; Preemergence, 31 g ai/ha): 100
Signalgrass plant response rating ([10]; 62 g ai/ha, Preemergence): 100
Signalgrass plant response rating ([10]; 125 g ai/ha, preemergence): 100
Plant response rating, Signalgrass ([10]; Preemergence): 50
Kochia plant response rating ([11]; 62 g ai/ha, Preemergence): 100
Kochia plant response rating ([11]; 125 g ai/ha, preemergence): 100
Plant response rating, Kochia ([11]; Preemergence, 16 g ai/ha): 0
Plant response rating, Kochia ([11]; Preemergence, 31 g ai/ha): 30
Purple Nutsedge plant response rating ([12]; 125 g ai/ha, preemergence): 75
Plant response rating, Purple Nutsedge ([12]; Preemergence, 16 g ai/ha): 20
Plant response rating, Purple Nutsedge ([12]; Preemergence, 31 g ai/ha): 35
Guineagrass plant response rating ([13]; 62 g ai/ha, Preemergence): 100
Guineagrass plant response rating ([13]; 125 g ai/ha, preemergence): 100
Plant response rating, Guineagrass ([13]; Preemergence, 16 g ai/ha): 90
Plant response rating, Guineagrass ([13]; Preemergence, 31 g ai/ha): 100
Morningglory plant response rating ([14]; 62 g ai/ha, Preemergence): 60
Morningglory plant response rating ([14]; 125 g ai/ha, preemergence): 80
Plant response rating, Morningglory ([14]; Preemergence, 16 g ai/ha): 0
Plant response rating, Morningglory ([14]; Preemergence, 31 g ai/ha): 0
Quackgrass plant response rating ([15]; 62 g ai/ha, Preemergence): 95
Quackgrass plant response rating ([15]; 125 g ai/ha, preemergence): 95
Plant response rating, Quackgrass ([15]; Preemergence, 16 g ai/ha): 0
Plant response rating, Quackgrass ([15]; Preemergence, 31 g ai/ha): 30
Purslane plant response rating ([16]; 62 g ai/ha, Preemergence): 30
Purslane plant response rating ([16]; 125 g ai/ha, preemergence): 30
Plant response rating, Purslane ([16]; Preemergence, 16 g ai/ha): 0
Plant response rating, Purslane ([16]; Preemergence, 31 g ai/ha): 0

Cn1nc(C(F)(F)F)c(C[S+]([O-])c2cccc[n+]2[O-])c1OCC(F)(F)F (racemic) [Compound 28]
Bluegrass plant response rating ([1]; 62 g ai/ha, Preemergence): 65
Bluegrass plant response rating ([1]; 125 g ai/ha, preemergence): 100
Plant response rating, Bluegrass ([1]; Preemergence, 16 g ai/ha): 0
Plant response rating, Bluegrass ([1]; Preemergence, 31 g ai/ha): 40
Mallow plant response rating ([2]; 62 g ai/ha, Preemergence): 100
Mallow plant response rating ([2]; 125 g ai/ha, preemergence): 100
Plant response rating, Mallow ([2]; Preemergence, 16 g ai/ha): 0
Plant response rating, Mallow ([2]; Preemergence, 31 g ai/ha): 100
Prickly Sida plant response rating ([3]; 62 g ai/ha, Preemergence): 100
Prickly Sida plant response rating ([3]; 125 g ai/ha, preemergence): 100
Plant response rating, Prickly Sida ([3]; Preemergence, 16 g ai/ha): 15
Plant response rating, Prickly Sida ([3]; Preemergence, 31 g ai/ha): 90
Crabgrass, Naked plant response rating ([4]; 62 g ai/ha, Preemergence): 90
Crabgrass, Naked plant response rating ([4]; 125 g ai/ha, preemergence): 100
Plant response rating, Crabgrass, Naked ([4]; Preemergence, 16 g ai/ha): 65
Plant response rating, Crabgrass, Naked ([4]; Preemergence, 31 g ai/ha): 90
Bermudagrass plant response rating ([5]; 62 g ai/ha, Preemergence): 80
Bermudagrass plant response rating ([5]; 125 g ai/ha, preemergence): 100
Plant response rating, Bermudagrass ([5]; Preemergence, 16 g ai/ha): 0
Plant response rating, Bermudagrass ([5]; Preemergence, 31 g ai/ha): 30
Dallisgrass plant response rating ([6]; 62 g ai/ha, Preemergence): 100
Dallisgrass plant response rating ([6]; 125 g ai/ha, preemergence): 100
Plant response rating, Dallisgrass ([6]; Preemergence, 16 g ai/ha): 0
Plant response rating, Dallisgrass ([6]; Preemergence, 31 g ai/ha): 40
Black Mustard plant response rating ([7]; 62 g ai/ha, Preemergence): 100
Black Mustard plant response rating ([7]; 125 g ai/ha, preemergence): 100
Plant response rating, Black Mustard ([7]; Preemergence, 16 g ai/ha): 80
Plant response rating, Black Mustard ([7]; Preemergence, 31 g ai/ha): 100
Dayflower plant response rating ([8]; 62 g ai/ha, Preemergence): 100
Dayflower plant response rating ([8]; 125 g ai/ha, preemergence): 100
Plant response rating, Dayflower ([8]; Preemergence, 16 g ai/ha): 20
Plant response rating, Dayflower ([8]; Preemergence, 31 g ai/ha): 100
Barnyardgrass plant response rating ([9]; 62 g ai/ha, Preemergence): 100
Barnyardgrass plant response rating ([9]; 125 g ai/ha, preemergence): 100
Plant response rating, Barnyardgrass ([9]; Preemergence, 16 g ai/ha): 75
Plant response rating, Barnyardgrass ([9]; Preemergence, 31 g ai/ha): 100
Signalgrass plant response rating ([10]; 62 g ai/ha, Preemergence): 90
Signalgrass plant response rating ([10]; 125 g ai/ha, preemergence): 100
Plant response rating, Signalgrass ([10]; Preemergence): 75
Groundsel plant response rating ([17]; 62 g ai/ha, Preemergence): 100
Groundsel plant response rating ([17]; 125 g ai/ha, preemergence): 100
Plant response rating, Groundsel ([17]; Preemergence, 16 g ai/ha): 90
Plant response rating, Groundsel ([17]; Preemergence, 31 g ai/ha): 100
Kochia plant response rating ([11]; 62 g ai/ha, Preemergence): 100
Kochia plant response rating ([11]; 125 g ai/ha, preemergence): 100
Plant response rating, Kochia ([11]; Preemergence, 16 g ai/ha): 0
Plant response rating, Kochia ([11]; Preemergence, 31 g ai/ha): 50
Purple Nutsedge plant response rating ([12]; 62 g ai/ha, Preemergence): 80
Purple Nutsedge plant response rating ([12]; 125 g ai/ha, preemergence): 90
Plant response rating, Purple Nutsedge ([12]; Preemergence, 16 g ai/ha): 0
Plant response rating, Purple Nutsedge ([12]; Preemergence, 31 g ai/ha): 25
Guineagrass plant response rating ([13]; 62 g ai/ha, Preemergence): 100
Guineagrass plant response rating ([13]; 125 g ai/ha, preemergence): 100
Plant response rating, Guineagrass ([13]; Preemergence, 16 g ai/ha): 75
Plant response rating, Guineagrass ([13]; Preemergence, 31 g ai/ha): 100
Morningglory plant response rating ([14]; 62 g ai/ha, Preemergence): 100
Morningglory plant response rating ([14]; 125 g ai/ha, preemergence): 100
Plant response rating, Morningglory ([14]; Preemergence, 16 g ai/ha): 30
Plant response rating, Morningglory ([14]; Preemergence, 31 g ai/ha): 80
Quackgrass plant response rating ([15]; 62 g ai/ha, Preemergence): 90
Quackgrass plant response rating ([15]; 125 g ai/ha, preemergence): 95
Plant response rating, Quackgrass ([15]; Preemergence, 16 g ai/ha): 0
Plant response rating, Quackgrass ([15]; Preemergence, 31 g ai/ha): 50
Purslane plant response rating ([16]; 62 g ai/ha, Preemergence): 100
Purslane plant response rating ([16]; 125 g ai/ha, preemergence): 100
Plant response rating, Purslane ([16]; Preemergence, 16 g ai/ha): 0
Plant response rating, Purslane ([16]; Preemergence, 31 g ai/ha): 60
